Measured values reported in patent publication US12479843B2, “Spiro ring-containing quinazoline compounds” (WIGEN BIOMEDICINE TECHNOLOGY (SHANGHAI) CO., LTD., priority 2019, dated 2025).

How the values were obtained:
[1] = system: H358 cells; experiment: Antiproliferative activity against H358 cells (Cell Titer Glow, ultra-low attachment plate); assay type: cell-based; conditions: Homo sapiens, NCI-H358, 72 h, 96-well ultra-low attachment plate, three days after addition of compound, Cell Titer Glow
Method: 2500 H358 cells were seeded in a 96-well ultra-low attachment plate (corning, 7007). After one day of growth, a serially diluted compound (a maximum concentration of 5 μM, 5-fold dilution, a total of five doses) was added. Three days after the addition of the compound, Cell Titer Glow (Promega, G9681) was added to evaluate pellet growth, and the IC50 value was calculated.

[2] = system: pERK level in H358 cells; experiment: pERK and ERK protein content assay in H358 cells (ELISA); assay type: cell-based; conditions: Homo sapiens, NCI-H358, compound 1 μM, 24 h, pERK/ERK ratio compared with DMSO group, read-out: Inhibition rate (%) of pERK level
Method: H358 cells were seeded in a 24-well plate. After one day of growth, a test compound (at a concentration of 1 μM) was added. After 24 h of action of the compound, the cells were lysed, and the cell lysate was transferred to a 96-well ELISA plate. The levels of pERK and ERK in the lysate were measured using an ELISA kit (abcam 176660). The ratio of pERK to ERK was calculated and compared with that of the DMSO group, and the percentage of inhibition of pERK activity by the compound was calculated.

Compound | IC50 [1] | inhibition at 1 µM [2]
C=CC(=O)N1CC2(CCN(c3nc(OC4CC5(C4)CN(CCOC)C5)nc4c(OCC(F)(F)F)c(-c5c(C)ccc6[nH]ncc56)c(C5CC5)cc34)CC2)C1 [Compound 125] | < 300 nM | > 90%
C=CC(=O)N1CC2(CCN(c3nc(N4CC(N5C[C@@H](C)[C@@H](OC)C5)C4)nc4c(OCC(F)(F)F)c(-c5c(C)ccc6[nH]ncc56)c(C5CC5)cc34)CC2)C1 [Compound 266] | < 300 nM | > 90%
C=CC(=O)N1CC2(CCN(c3nc(N4CC5(CCCO5)C4)nc4c(OCC(F)(F)F)c(-c5c(C)ccc6[nH]ncc56)c(C5CC5)cc34)CC2)C1 [Compound 279] | < 300 nM | > 90%
C=CC(=O)N1CC2(CCN(c3nc(N4CC(N5CC[C@@H](C(C)(C)O)C5)C4)nc4c(OCC(F)(F)F)c(-c5c(C)ccc6[nH]ncc56)c(C5CC5)cc34)CC2)C1 [Compound 254] | 300 to 1000 nM | > 90%
C=CC(=O)N1CC2(CCN(c3nc(N4CC[C@H](N(CC)CC)C4)nc4c(OCC(F)(F)F)c(-c5c(C)ccc6[nH]ncc56)c(C5CC5)cc34)CC2)C1 [Compound 189] | < 300 nM | > 90%
C=CC(=O)N1CC2(CCN(c3nc(N4CC[C@H](N5CCC(C)C5)C4)nc4c(OCC(F)(F)F)c(-c5c(C)ccc6[nH]ncc56)c(C5CC5)cc34)CC2)C1 (stereo partly drawn) [Compound 298] | < 300 nM | > 90%
C=CC(=O)N1CC2(CCN(c3nc(N(C)CCN4CC[C@H](C)C4)nc4c(OCC(F)(F)F)c(-c5c(C)ccc6[nH]ncc56)c(C5CC5)cc34)CC2)C1 [Compound 233] | < 300 nM | > 90%
C=CC(=O)N1CC2(CCN(c3nc(N4CC(N5CC[C@H](C(C)(C)O)C5)C4)nc4c(OCC(F)(F)F)c(-c5c(C)ccc6[nH]ncc56)c(C5CC5)cc34)CC2)C1 [Compound 253] | 300 to 1000 nM | > 90%
C=CC(=O)N1CC2(CCN(c3nc(OC4CCN(CCOC)CC4)nc4c(OCC(F)(F)F)c(-c5c(C)ccc6[nH]ncc56)c(CC)cc34)CC2)C1 [Compound 14] | 300 to 1000 nM | > 90%
C=CC(=O)N1CC2(CCN(c3nc(OC4CCN(CCOC)CC4)nc4c(OCC(F)(F)F)c(-c5cc(O)ccc5F)c(C5CC5)cc34)CC2)C1 [Compound 57] | < 300 nM | > 90%
C=C(F)C(=O)N1CC2(CCN(c3nc(N4CCN(C5CCOCC5)CC4)nc4c(OCC(F)(F)F)c(-c5c(C)ccc6[nH]ncc56)c(C5CC5)cc34)CC2)C1 [Compound 155] | 300 to 1000 nM | 50 to 90%
C=CC(=O)N1CC2(CCN(c3nc(N4CC(N5CC[C@@H](C)C5)C4)nc4c(OCC(F)(F)F)c(-c5c(C)ccc6[nH]ncc56)c(C5CC5)cc34)CC2)C1 [Compound 248] | < 300 nM | > 90%
C=Cc1cc2c(N3CCC4(CC3)CN(C(=O)C(=C)F)C4)nc(OC3CCN(CCOC)CC3)nc2c(OCC)c1-c1c(C)ccc2[nH]ncc12 [Compound 4] | < 300 nM | > 90%
C=C(C(=O)N1CC2(CCN(c3nc(OC4CCN(CCOC)CC4)nc4c(OCC(F)(F)F)c(-c5c(C)ccc6[nH]ncc56)c(C5CC5)cc34)CC2)C1)n1ccnc1 [Compound 22] | 300 to 1000 nM | 50 to 90%
C=C(F)C(=O)N1CC2(CCN(c3nc(N4CC(N(C)C)C4)nc4c(OCC(F)(F)F)c(-c5c(C)ccc6[nH]ncc56)c(C5CC5)cc34)CC2)C1 [Compound 139] | < 300 nM | > 90%
C=CC(=O)N1CC2(CCN(c3nc(N4CC5(CC(F)C5)C4)nc4c(OCC(F)(F)F)c(-c5c(C)ccc6[nH]ncc56)c(C5CC5)cc34)CC2)C1 [Compound 284] | < 300 nM | > 90%
C=CC(=O)N1CC2(CCN(c3nc(N4CC(N5CCC[C@@H]5C)C4)nc4c(OCC(F)(F)F)c(-c5c(C)ccc6[nH]ncc56)c(C5CC5)cc34)CC2)C1 [Compound 246] | < 300 nM | > 90%
C=C(F)C(=O)N1CC2(CCN(c3nc(OC[C@@H]4COCCN4C)nc4c(OCC(F)(F)F)c(-c5c(C)ccc6[nH]ncc56)c(C5CC5)cc34)CC2)C1 [Compound 116] | 300 to 1000 nM | 50 to 90%

Compound | IC50 [1] | inhibition at 1 µM [2]
C=CC(=O)N1CC2(CCN(c3nc(N4CC(N5C6CCC5CC6)C4)nc4c(OCC(F)(F)F)c(-c5c(C)c(F)cc6[nH]ncc56)c(C5CC5)cc34)CC2)C1 [Compound 329] | < 300 nM | > 90%
C=CC(=O)N1CC2(CCN(c3nc(N4CC5(CC(N6CCCC6)C5)C4)nc4c(OCC(F)(F)F)c(-c5c(C)ccc6[nH]ncc56)c(C5CC5)cc34)CC2)C1 [Compound 289] | < 300 nM | > 90%
C=C(C(=O)N1CC2(CCN(c3nc(OC4CCN(CCOC)CC4)nc4c(OCC(F)(F)F)c(-c5c(C)ccc6[nH]ncc56)c(C5CC5)cc34)CC2)C1)n1ccnn1 [Compound 25] | < 300 nM | > 90%
C=C(C(=O)N1CC2(CCN(c3nc(OC4CCN(CCOC)CC4)nc4c(OCC(F)(F)F)c(-c5c(C)ccc6[nH]ncc56)c(C5CC5)cc34)CC2)C1)n1cncn1 [Compound 23] | < 300 nM | > 90%
C=CC(=O)N1CC2(CCN(c3nc(N4CC(N5CC[C@H](C)C5)C4)nc4c(OCC)c(-c5c(C)ccc6[nH]ncc56)c(C5CC5)cc34)CC2)C1 [Compound 330] | < 300 nM | > 90%
C=C(F)C(=O)N1CC2(CCN(c3nc(N4CC5(CCN(CCOCC)CC5)C4)nc4c(OCC(F)(F)F)c(-c5c(C)ccc6[nH]ncc56)c(C5CC5)cc34)CC2)C1 [Compound 94] | < 300 nM | > 90%
C=CC(=O)N1CC2(CCN(c3nc(N4CC(N5CC(C)(O)C5)C4)nc4c(OCC(F)(F)F)c(-c5c(C)ccc6[nH]ncc56)c(C5CC5)cc34)CC2)C1 [Compound 240] | < 300 nM | > 90%
C=CC(=O)N1CC2(CCN(c3nc(N4CC5(C4)[C@H](O)CCN5C)nc4c(OCC(F)(F)F)c(-c5c(C)ccc6[nH]ncc56)c(C5CC5)cc34)CC2)C1 [Compound 272] | < 300 nM | > 90%
C=CC(=O)N1CC2(CCN(c3nc(N4CC(N5CCC5)C4)nc4c(OCC(F)(F)F)c(-c5c(C)c(F)cc6[nH]ncc56)c(C=C)cc34)CC2)C1 [Compound 223] | < 300 nM | > 90%
C=CC(=O)N1CC2(CCN(c3nc(N4CC[C@H](N5C6CCC5CC6)C4)nc4c(OCC(F)(F)F)c(-c5c(C)ccc6[nH]ncc56)c(C5CC5)cc34)CC2)C1 [Compound 302] | < 300 nM | > 90%
C=CC(=O)N1CC2(CCN(c3nc(N4CC[C@H](N5CC[C@@H](F)C5)C4)nc4c(OCC(F)(F)F)c(-c5c(C)ccc6[nH]ncc56)c(C5CC5)cc34)CC2)C1 [Compound 193] | < 300 nM | > 90%
C=CC(=O)N1CC2(CCN(c3nc(N4CC[C@H](N5CC[C@H](OC)C5)C4)nc4c(OCC(F)(F)F)c(-c5c(C)ccc6[nH]ncc56)c(C5CC5)cc34)CC2)C1 [Compound 195] | < 300 nM | > 90%
C=CC(=O)N1CC2(CCN(c3nc(N4CC[C@@H](N5CC[C@@H](OC)C5)C4)nc4c(OCC(F)(F)F)c(-c5c(C)ccc6[nH]ncc56)c(C5CC5)cc34)CC2)C1 [Compound 198] | < 300 nM | > 90%
C=CC(=O)N1CC2(CCN(c3nc(N4CC(N5CCC(C)(C)CC5)C4)nc4c(OCC(F)(F)F)c(-c5c(C)ccc6[nH]ncc56)c(C5CC5)cc34)CC2)C1 [Compound 269] | < 300 nM | > 90%
C=CC(=O)N1CC2(CCN(c3nc(OC4CCN(CCOC)CC4)nc4c(N5CCC5)c(-c5c(C)ccc6[nH]ncc56)c(C5CC5)cc34)CC2)C1 [Compound 8] | 300 to 1000 nM | 50 to 90%
C=CC(=O)N1CC2(CCN(c3nc(N4CC5(CCN(CCOC)C5)C4)nc4c(OCC(F)(F)F)c(-c5c(C)ccc6[nH]ncc56)c(C5CC5)cc34)CC2)C1 [Compound 75] | < 300 nM | > 90%
C=CC(=O)N1CC2(CCN(c3nc(N4CC5(C4)[C@H](N(C)C)CCN5C)nc4c(OCC(F)(F)F)c(-c5c(C)ccc6[nH]ncc56)c(C5CC5)cc34)CC2)C1 [Compound 278] | < 300 nM | > 90%
C=CC(=O)N1CC2(CCN(c3nc(N(C)CCN4CCC4)nc4c(OCC(F)(F)F)c(-c5c(C)ccc6[nH]ncc56)c(C5CC5)cc34)CC2)C1 [Compound 226] | < 300 nM | > 90%
